# Key:
# Assay in all cases: relative viability (nuclei count vs DMSO), 5 days (fraction); higher = more cells survive
# CUDC-101 + Pemetrexed = compound: C#Cc1cccc(Nc2ncnc3cc(OC)c(OCCCCCCC(=O)NO)cc23)c1 [CUDC-101] + Nc1nc2[nH]cc(CCc3ccc(C(=O)N[C@@H](CCC(=O)O)C(=O)O)cc3)c2c(=O)[nH]1 [Pemetrexed] (partner 0.2 µM)
# Method in brief: (§1)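 Relative viability is defined as nuclei in treated wells over nuclei in vehicle wells. Duplicate plates were run and medians reported. Lung cancer cell lines in 1536-well plates were dosed by pin tool one day after seeding, with one drug or with a fixed anchor-drug dose plus five library-drug doses (not always all listed) in √10 steps, and nuclei were counted after 5 days.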
# Vandetanib + Vorinostat = compound: COc1cc2/c(=N/c3ccc(Br)cc3F)nc[nH]c2cc1OCC1CCN(C)CC1 [Vandetanib] + O=C(CCCCCCC(=O)Nc1ccccc1)NO [Vorinostat] (partner 1 µM)
# Method in brief: as §1
# Vandetanib + OSI-027 = compound: COc1cc2/c(=N/c3ccc(Br)cc3F)nc[nH]c2cc1OCC1CCN(C)CC1 [Vandetanib] + COc1cccc2cc(-c3nc([C@H]4CC[C@H](C(=O)O)CC4)n4ncnc(N)c34)[nH]c12 [OSI-027] (partner 0.5 µM)
# Method in brief: as §1
# [1] = compound: C1=CC=C2C(=C1)N=C(S2)C(C#N)C3=NC(=NC=C3)NCCC4=CN=CC=C4 + COc1cc2c(Oc3ccc(NC(=O)C4(C(=O)Nc5ccc(F)cc5)CC4)cc3F)ccnc2cc1OCCCN1CCOCC1 [Foretinib] (partner 0.25 µM)
# Method in brief: as §1
cell line,measurement,setting,value
UMC-11,relative viability,CUDC-101 + Pemetrexed; first compound 0.01 µM,0.78
same,relative viability,CUDC-101 + Pemetrexed; first compound 0.03162 µM,0.72
same,relative viability,CUDC-101 + Pemetrexed; first compound 0.1 µM,0.639
same,relative viability,CUDC-101 + Pemetrexed; first compound 0.3162 µM,0.415
same,relative viability,CUDC-101 + Pemetrexed; first compound 1 µM,0.219
same,relative viability,Vandetanib + Vorinostat; first compound 0.02 µM,0.43
same,relative viability,Vandetanib + Vorinostat; first compound 0.06325 µM,0.373
same,relative viability,Vandetanib + Vorinostat; first compound 0.2 µM,0.399
same,relative viability,Vandetanib + Vorinostat; first compound 0.6325 µM,0.342
same,relative viability,Vandetanib + Vorinostat; first compound 2 µM,0.364
same,relative viability,Vandetanib + OSI-027; first compound 0.02 µM,0.472
same,relative viability,Vandetanib + OSI-027; first compound 0.06325 µM,0.416
same,relative viability,Vandetanib + OSI-027; first compound 0.2 µM,0.45
same,relative viability,Vandetanib + OSI-027; first compound 0.6325 µM,0.443
same,relative viability,Vandetanib + OSI-027; first compound 2 µM,0.467
same,relative viability,[1]; first compound 0.005 µM,0.908
same,relative viability,[1]; first compound 0.01581 µM,0.993
same,relative viability,[1]; first compound 0.05 µM,0.999
same,relative viability,[1]; first compound 0.1581 µM,1.01
same,relative viability,[1]; first compound 0.5 µM,1.05

# Source: the supplement of paper PMC10307832
